Source: patent publication US20200325177A1, “METHODS OF MAKING STREPTOGRAMIN COMPOSITIONS AND THE USE THEREOF” (THE REGENTS OF THE UNIVERSITY OF CALIFORNIA, priority 2017, published 2020)
Values after ≈ are worked out from the molar mass of the structure shown. Like-named read-outs stand apart in the source and are kept apart here.

Columns and labels:
Format in all cases: cell-based
E. faecalis = assay: MIC, Gram-positive bacteria: E. faecalis; conditions: Enterococcus faecalis, column 1, read-out: Minimal Inhibitory Concentration (MIC) E. faecalis
E. faecium ATCC 35667 = assay: MIC, Gram-positive bacteria: E. faecium ATCC 35667; conditions: Enterococcus faecium, ATCC35667, column 2, read-out: Minimal Inhibitory Concentration (MIC) E. faecium ATCC 35667
E. faecium VRE; vanA = assay: MIC, Gram-positive bacteria: E. faecium VRE; vanA; conditions: Enterococcus faecium, column 3, read-out: Minimal Inhibitory Concentration (MIC) E. faecium VRE
S. aureus = assay: MIC, Gram-positive bacteria: S. aureus (strains not named); conditions: Staphylococcus aureus, read-out: Minimal Inhibitory Concentration (MIC) S. aureus
[1] = system: S. aureus Vat A streptogramin; assay: MIC, Gram-positive bacteria: S. aureus Vat A streptogramin; conditions: Staphylococcus aureus; Gram-positive; column 5; read-out: Minimal Inhibitory Concentration (MIC) S. aureus Vat A streptogramin
[2] = system: S. aureus Linezolid-resistant; cfr; assay: MIC, Gram-positive bacteria: S. aureus Linezolid-resistant; cfr; conditions: Staphylococcus aureus, column 9, read-out: Minimal Inhibitory Concentration (MIC) S. aureus Linezolid-resistant
S. pneumoniae = assay: MIC, Gram-positive bacteria: S. pneumoniae; conditions: Streptococcus pneumoniae, column 10, read-out: Minimal Inhibitory Concentration (MIC) S. pneumoniae
[3] = system: K. pneumoniae multidrug-resistant; assay: MIC, Gram-negative bacteria: K. pneumoniae multidrug-resistant; conditions: Klebsiella pneumoniae, read-out: Minimal Inhibitory Concentration (MIC) K. pneumoniae multidrug-resistant
P. aeruginosa ATCC 27853 = assay: MIC, Gram-negative bacteria: P. aeruginosa ATCC 27853; conditions: Pseudomonas aeruginosa, ATCC27853, read-out: Minimal Inhibitory Concentration (MIC) P. aeruginosa ATCC 27853
[4] = system: P. aeruginosa MDR clinical isolate; assay: MIC, Gram-negative bacteria: P. aeruginosa MDR clinical isolate; conditions: Pseudomonas aeruginosa, read-out: Minimal Inhibitory Concentration (MIC) P. aeruginosa MDR clinical isolate
H. influenzae ATCC 49247 = assay: MIC, Gram-negative bacteria: H. influenzae ATCC 49247; conditions: Haemophilus influenzae, ATCC49247, read-out: Minimal Inhibitory Concentration (MIC) H. influenzae ATCC 49247
Gram-Negative Organisms = assay: microbe, parasite or virus in culture
[5] = first unnamed S. aureus column (c4)
[6] = fourth unnamed S. aureus column (c8)
[7] = second unnamed S. aureus column (c6)
[8] = third unnamed S. aureus column (c7)
[9] = Acinetobacter baumannii, ATCC19606, read-out: Minimal Inhibitory Concentration (MIC), A. baumannii ATCC 19606
[10] = Escherichia coli, ATCC25922, read-out: Minimal Inhibitory Concentration (MIC), E. coli ATCC 25922
[11] = Escherichia coli, read-out: Minimal Inhibitory Concentration (MIC), E. coli BAS2006, OMP C, OMP F
[12] = Escherichia coli, read-out: Minimal Inhibitory Concentration (MIC), E. coli olC efflux defective
[13] = Escherichia coli, read-out: Minimal Inhibitory Concentration (MIC), E. coli permeability mutant BAS1314, IMP4213ZAB::TN10
[14] = Escherichia coli, read-out: Minimal Inhibitory Concentration (MIC), E. coli ΔompC768, KanR insert
[15] = Klebsiella pneumoniae, ATCC43816, read-out: Minimal Inhibitory Concentration (MIC), K. pneumoniae ATCC 43816

Structure (SMILES) | MIC (E. faecalis) [µg/mL] | MIC (E. faecium ATCC 35667) [µg/mL] | MIC (E. faecium VRE; vanA) [µg/mL] | MIC (S. aureus; [5]) [µg/mL] | MIC (S. aureus; [6]) [µg/mL] | MIC (S. aureus; [7]) [µg/mL] | MIC (S. aureus; [8]) [µg/mL] | MIC [1] [µg/mL] | MIC [2] [µg/mL] | MIC (S. pneumoniae) [µg/mL] | MIC [3] [µg/mL] | MIC (P. aeruginosa ATCC 27853) [µg/mL] | MIC [4] [µg/mL] | MIC (H. influenzae ATCC 49247) [µg/mL] | MIC (Gram-Negative Organisms; [9]) [µg/mL] | MIC (Gram-Negative Organisms; [10]) [µg/mL] | MIC (Gram-Negative Organisms; [11]) [µg/mL] | MIC (Gram-Negative Organisms; [12]) [µg/mL] | MIC (Gram-Negative Organisms; [13]) [µg/mL] | MIC (Gram-Negative Organisms; [14]) [µg/mL] | other results
CC1=C\[C@@H](O)CC(=O)Cc2nc(co2)C(=O)N2CCC[C@@H]2C(=O)O[C@H]([C@H](C)COC(=O)Nc2ccc(C(F)(F)F)cc2)[C@H](C)/C=C/C(=O)NC\C=C\1 [SA0110193] | > 64 | 8 (≈ 10.9 µM) | > 64 | 8 (≈ 10.9 µM) | 8 (≈ 10.9 µM) | 8 (≈ 10.9 µM) | 16 (≈ 21.9 µM) | 16 (≈ 21.9 µM) | > 64 | > 64 | > 64 | > 64 | > 64 | > 64 | > 64 | > 64 | > 64 | 8 (≈ 10.9 µM) | 4 (≈ 5.47 µM) | > 64 | MIC (Gram-Negative Organisms; [15]): > 64 µg/mL
CC1=C\[C@@H](O)CC(=O)Cc2nc(co2)C(=O)N2CCC[C@@H]2C(=O)O[C@H]([C@H](C)COC(=O)Nc2ccc(OC(F)(F)F)cc2)[C@H](C)/C=C/C(=O)NC\C=C\1 [SA0110195] | > 64 | 8 (≈ 10.7 µM) | > 64 | 16 (≈ 21.4 µM) | 8 (≈ 10.7 µM) | 16 (≈ 21.4 µM) | 16 (≈ 21.4 µM) | > 64 | > 64 | > 64 | > 64 | > 64 | > 64 | > 64 | > 64 | > 64 | > 64 | 8 (≈ 10.7 µM) | 8 (≈ 10.7 µM) | > 64 | MIC (Gram-Negative Organisms; [15]): > 64 µg/mL
CC1=C\[C@@H](O)CC(=O)Cc2nc(co2)C(=O)N2CCC[C@@H]2C(=O)O[C@H]([C@H](C)COC(=O)Nc2ccccc2)[C@H](C)/C=C/C(=O)NC\C=C\1 [SA0110196] | > 64 | 16 (≈ 24.1 µM) | 64 (≈ 96.6 µM) | 32 (≈ 48.3 µM) | 16 (≈ 24.1 µM) | 32 (≈ 48.3 µM) | 64 (≈ 96.6 µM) | > 64 | > 64 | 32 (≈ 48.3 µM) | > 64 | > 64 | > 64 | 16 (≈ 24.1 µM) | > 64 | > 64 | 32 (≈ 48.3 µM) | 2 (≈ 3.02 µM) | 8 (≈ 12.1 µM) | > 64 | MIC (Gram-Negative Organisms; [15]): > 64 µg/mL
CC1=C\[C@@H](O)CC(=O)Cc2nc(co2)C(=O)N2CCC[C@@H]2C(=O)O[C@H]([C@H](C)COC(=O)Nc2cccnc2)[C@H](C)/C=C/C(=O)NC\C=C\1 [SA0110205] | > 64 | 32 (≈ 48.2 µM) | 64 (≈ 96.4 µM) | > 64 | > 64 | > 64 | > 64 | > 64 | > 64 | 32 (≈ 48.2 µM) | > 64 | > 64 | > 64 | 32 (≈ 48.2 µM) | > 64 | > 64 | > 64 | 8 (≈ 12.1 µM) | 16 (≈ 24.1 µM) | > 64 | MIC (Gram-Negative Organisms; [15]): > 64 µg/mL
CC1=C\[C@@H](O)CC(=O)Cc2nc(co2)C(=O)N2CCC[C@@H]2C(=O)O[C@H]([C@H](C)COC(=O)Nc2ccnc(Br)c2)[C@H](C)/C=C/C(=O)NC\C=C\1 [SA0110206] | > 64 | 8 (≈ 10.8 µM) | 16 (≈ 21.5 µM) | 16 (≈ 21.5 µM) | 16 (≈ 21.5 µM) | 16 (≈ 21.5 µM) | 32 (≈ 43.1 µM) | > 64 | > 64 | 8 (≈ 10.8 µM) | > 64 | > 64 | > 64 | 4 (≈ 5.39 µM) | > 64 | > 64 | 16 (≈ 21.5 µM) | 2 (≈ 2.69 µM) | 2 (≈ 2.69 µM) | > 64 | MIC (Gram-Negative Organisms; [15]): > 64 µg/mL
CC1=C\[C@@H](O)CC(=O)Cc2nc(co2)C(=O)N2CCC[C@@H]2C(=O)O[C@H]([C@H](C)COC(=O)Nc2ccc(Br)nc2)[C@H](C)/C=C/C(=O)NC\C=C\1 [SA0110209] | > 64 | 16 (≈ 21.5 µM) | > 64 | 16 (≈ 21.5 µM) | 16 (≈ 21.5 µM) | 16 (≈ 21.5 µM) | > 64 | > 64 | > 64 | 16 (≈ 21.5 µM) | > 64 | > 64 | > 64 | 8 (≈ 10.8 µM) | > 64 | > 64 | > 64 | 2 (≈ 2.69 µM) | 2 (≈ 2.69 µM) | > 64 | MIC (Gram-Negative Organisms; [15]): > 64 µg/mL
CC1=C\[C@@H](O)CC(=O)Cc2nc(co2)C(=O)N2CCC[C@@H]2C(=O)O[C@H]([C@H](C)COC(=O)Nc2coc(C)n2)[C@H](C)/C=C/C(=O)NC\C=C\1 [SA0110210] | > 64 | 64 (≈ 95.8 µM) | 64 (≈ 95.8 µM) | > 64 | > 64 | > 64 | > 64 | > 64 | > 64 | 64 (≈ 95.8 µM) | > 64 | > 64 | > 64 | 16 (≈ 24 µM) | > 64 | > 64 | > 64 | 8 (≈ 12 µM) | 8 (≈ 12 µM) | > 64 | MIC (Gram-Negative Organisms; [15]): > 64 µg/mL
CC1=C\[C@@H](O)CC(=O)Cc2nc(co2)C(=O)N2CCC[C@@H]2C(=O)O[C@H]([C@H](C)COC(=O)Nc2csc(C)n2)[C@H](C)/C=C/C(=O)NC\C=C\1 [SA0110214] | > 64 | 32 (≈ 46.8 µM) | 64 (≈ 93.6 µM) | 64 (≈ 93.6 µM) | 64 (≈ 93.6 µM) | 64 (≈ 93.6 µM) | > 64 | > 64 | > 64 | 32 (≈ 46.8 µM) | > 64 | > 64 | > 64 | 16 (≈ 23.4 µM) | > 64 | > 64 | 64 (≈ 93.6 µM) | 8 (≈ 11.7 µM) | 8 (≈ 11.7 µM) | > 64 | MIC (Gram-Negative Organisms; [15]): > 64 µg/mL
CC1=C\[C@@H](O)CC(=O)Cc2nc(co2)C(=O)N2CCC[C@@H]2C(=O)O[C@H]([C@H](C)COC(=O)Nc2cnccn2)[C@H](C)/C=C/C(=O)NC\C=C\1 [SA0110215] | > 64 | 64 (≈ 96.3 µM) | > 64 | > 64 | > 64 | > 64 | > 64 | > 64 | > 64 | 64 (≈ 96.3 µM) | > 64 | > 64 | > 64 | 16 (≈ 24.1 µM) | > 64 | > 64 | > 64 | 8 (≈ 12 µM) | 16 (≈ 24.1 µM) | > 64 | MIC (Gram-Negative Organisms; [15]): > 64 µg/mL
CC1=C\[C@@H](O)CC(=O)Cc2nc(co2)C(=O)N2CCC[C@@H]2C(=O)O[C@H]([C@H](C)COC(=O)Nc2ccn(C)n2)[C@H](C)/C=C/C(=O)NC\C=C\1 [SA0110218] | > 64 | > 64 | > 64 | > 64 | > 64 | > 64 | > 64 | > 64 | > 64 | > 64 | > 64 | > 64 | > 64 | 32 (≈ 48 µM) | > 64 | > 64 | > 64 | 16 (≈ 24 µM) | 32 (≈ 48 µM) | > 64 | MIC (Gram-Negative Organisms; [15]): > 64 µg/mL
CC1=C\[C@@H](O)CC(=O)Cc2nc(co2)C(=O)N2CCC[C@@H]2C(=O)O[C@H]([C@H](C)COC(=O)Nc2ccccn2)[C@H](C)/C=C/C(=O)NC\C=C\1 [SA0110222] | > 64 | 32 (≈ 48.2 µM) | 64 (≈ 96.4 µM) | > 64 | 64 (≈ 96.4 µM) | > 64 | > 64 | > 64 | > 64 | 32 (≈ 48.2 µM) | > 64 | > 64 | > 64 | 16 (≈ 24.1 µM) | > 64 | > 64 | 64 (≈ 96.4 µM) | 4 (≈ 6.03 µM) | 16 (≈ 24.1 µM) | > 64 | MIC (Gram-Negative Organisms; [15]): > 64 µg/mL
